Experimental data: ChEMBL document CHEMBL3046246, “Synthesis of spirothiohydantoin analogues of hydantocidin” (1995)

What was measured:
Type in all cases: functional
Conditions in all cases: 240 h, read-out: GI
[1] = system: Ambrosia artemisiifolia; assay: Herbicidal activity against three-leaf stage Ambrosia artemisiifolia (ragweed) assessed as plant growth inhibition at 1000 ppm applied through foliar spraying measured after 10 days post compound treatment relative to untreated control
[2] = system: Ipomoea purpurea; assay: Herbicidal activity against 3-leaf stage tall Ipomoea purpurea (common morning-glory) assessed as plant growth inhibition at 1000 ppm applied through foliar spraying measured after 10 days post compound treatment relative to untreated control
[3] = system: Abutilon theophrasti; assay: Herbicidal activity against three-leaf stage Abutilon theophrasti (velvetleaf) assessed as plant growth inhibition at 1000 ppm applied through foliar spraying measured after 10 days post compound treatment relative to untreated control
[4] = system: Xanthium strumarium; assay: Herbicidal activity against three-leaf stage Xanthium strumarium (cocklebur) assessed as plant growth inhibition at 1000 ppm applied through foliar spraying measured after 10 days post compound treatment relative to untreated control
[5] = system: Solanum nigrum; assay: Herbicidal activity against three-leaf stage Solanum nigrum (black nightshade) assessed as plant growth inhibition at 1000 ppm applied through foliar spraying measured after 10 days post compound treatment relative to untreated control
[6] = system: Sorghum halepense; assay: Herbicidal activity against three-leaf stage Sorghum halepense (Johnson grass) assessed as plant growth inhibition at 1000 ppm applied through foliar spraying measured after 10 days post compound treatment relative to untreated control
[7] = system: Setaria viridis; assay: Herbicidal activity against three-leaf stage Setaria viridis (green foxtail) assessed as plant growth inhibition at 1000 ppm applied through foliar spraying measured after 10 days post compound treatment relative to untreated control
[8] = system: Panicum dichotomiflorum; assay: Herbicidal activity against three-leaf stage Panicum dichotomiflorum assessed as plant growth inhibition at 1000 ppm applied through foliar spraying measured after 10 days post compound treatment relative to untreated control
[9] = system: Digitaria sanguinalis; assay: Herbicidal activity against three-leaf stage Digitaria sanguinalis (hairy crabgrass) assessed as plant growth inhibition at 1000 ppm applied through foliar spraying measured after 10 days post compound treatment relative to untreated control
[10] = system: Echinochloa crus-galli; assay: Herbicidal activity against three-leaf stage Echinochloa crus-galli (barnyard grass) assessed as plant growth inhibition at 1000 ppm applied through foliar spraying measured after 10 days post compound treatment relative to untreated control

Row | SMILES | inhibition of growth at 1000 ppm [1] | inhibition of growth at 1000 ppm [2] | inhibition of growth at 1000 ppm [3] | inhibition of growth at 1000 ppm [4] | inhibition of growth at 1000 ppm [5] | inhibition of growth at 1000 ppm [6] | inhibition of growth at 1000 ppm [7] | inhibition of growth at 1000 ppm [8] | inhibition of growth at 1000 ppm [9] | inhibition of growth at 1000 ppm [10]
1 | O=C1NC(=S)N[C@]12O[C@H](CO)[C@@H](O)[C@H]2O | 80% | 80% | 80% | 95% | 80% | 95% | 95% | 80% | 95% | 95%
2 | O=C1NC(=S)N[C@@]12O[C@H](CO)[C@@H](O)[C@H]2O | 95% | 95% | 95% | 95% | 95% | 95% | 95% | 80% | 95% | 95%
3 | O=C1NC(=O)[C@@]2(N1)O[C@H](CO)[C@@H](O)[C@H]2O [HYDANTOCIDIN] | 95% | 95% | 95% | 95% | 95% | 95% | 95% | 95% | 95% | 95%
4 | O=C1NC(=O)[C@]2(N1)O[C@H](CO)[C@@H](O)[C@H]2O [HYDANTOCIDIN] |  | 30% | 80% | 80% | 50% | 0% | 80% | 80% | 80% | 10%
